Measured values taken from patent publication US20150374779A1, “PHARMACOLOGIC TREATMENTS OF MENIÉRE'S DISEASE” (priority 2014, published 2015).
Where no end group is shown, it is not given here. [ ]: non-standard residue; d: D form.

What was measured:
wild type HSV-1 (KOS) = assay: Western blot assay of accumulation of HSV-1 viral proteins (IE, E, L classes) in SH-SY5Y cells and rat fetal cortex neurons; type: cell-based; conditions: 10 μM; both SH-SY5Y cells and fetal cortex neurons; 8 h post infection
Experimental: Cell monolayers were pretreated either with DMSO (DM, vehicle control), or the JNK inhibitors D-JNKI-1 (AM, 10 μM) or SP600125 (SP, 40 μM), then infected in the presence of drug for 60 minutes and finally in the presence of drug until the time of harvest, 8 hours post infection. Western blot for tubulin served as a loading control.
The ability of JNK inhibitors to affect accumulation of viral proteins representative of the immediate-early (IE), early (E) or late (L) kinetic classes was evaluated by a Western blot assay.
Unless indicated otherwise, the same materials and methods were applied as for the experiment described under Example 1 and as laid out by Hargett et al., 2005.
Replicate monolayers of rat fetal cortex neurons or ATRA-differentiated SH-SY5Y cells were pre-treated with DMSO, D-JNKI-1 (10 μM) or […] (40 μM) for 30 minutes, and then infected with wild type HSV-1 (KOS) or ICP27 null mutant d27 at a multiplicity of infection (MOI) of 5, or mock-infected under pre-treatment conditions for 60 minutes. The inoculum was removed and incubation continued under the pretreatment conditions until the time of harvest. Whole cell lysates were prepared at 8 h post infection. Aliquots of lysates were separated on 12% gels by standard polyacrylamide gel electrophoresis (SDS-PAGE) procedures. […]

KOS strain of HSV-1 [1] = assay: single cycle herpes simplex virus infection assay (virus yield), fetal rat cortex neurons; type: cell-based; conditions: for Pfu/culture: MOI 5, harvest 20 h postinfection, DMSO 1.33 × 10^6
Experimental: (§1) A single cycle herpes simplex virus infection assay was performed to determine the effect of JNK inhibitors on virus yield.
(§2) To prepare a 1 mM stock solution, 5.15 mg of D-JNKI-1 acetate was suspended in 1 ml of water, vortexed for 2 minutes, and sterilized by passage through a PES filter; 50 μL aliquots were prepared and stored at −20° C.
(§3) Human neuroblastoma cells (SH-SY5Y) were maintained in DMEM plus 10% fetal calf serum, 1 mM HEPES (Gibco) and 2 μg/ml gentamicin (Gibco). For differentiation, monolayers of cells were rinsed in PBS and then maintained in Neurobasal medium (Gibco) plus 2% B27 supplement and […] all-trans retinoic acid (ATRA). Primary fetal rat cortex cells were maintained in Neurobasal medium plus 2% B27, 2 mM glutamine and […] gentamicin.
(§4) Monolayers of SH-SY5Y human neuroblastoma cells differentiated by treatment with ATRA, or fetal rat cortex neurons were pre-treated with 10-20 μM D-JNKI-1, 40 μM SP600125 (Calbiochem), or DMSO (D2650, Sigma-Aldrich) vehicle control for 30 minutes prior to infection. Monolayers were infected with the KOS strain of HSV-1 at a multiplicity of infection (MOI) of 5 for 60 minutes under conditions of pre-treatment. Following the inoculation period, monolayers were incubated under pre-treatment conditions and harvested at 20 hours postinfection.
(§5) Cells and media were collected, and subjected to three rounds of freezing and thawing. Serial ten-fold dilutions were prepared and aliquots seeded in triplicate onto monolayers of Vero cells. Following a 60-minutes infection period, the inoculum was removed and replaced with medium containing 0.3% methyl cellulose. After 3 days, the overlay was removed and the cell monolayer stained with 0.8% crystal violet in 50% ethanol and plaques counted to determine virus yield. Results were presented as % of yield relative to control conditions (DMSO vehicle treatment).

reovirus T3D = conditions: cited from earlier work
KOS strain of HSV-1 [2] = assay: single cycle herpes simplex virus infection assay (virus yield), ATRA-differentiated SH-SY5Y human neuroblastoma cells; type: cell-based; conditions: for virus yield, % of control: DMSO = 100; for activity at 40 µM: Human alphaherpesvirus 1, Neuroblastoma cell
Experimental: as §1, §2, §3, §4, §5

ASNHL-related tinnitus = assay: double-blind, randomized, placebo-controlled phase II study of AM-111 in ASNHL and associated tinnitus; type: in vivo, human; conditions: for Complete ASNHL-Related Tinnitus Remission in the Treated Ear, Frequency (%): mITT; for Number of Subjects with Tinnitus/Number of Subjects with Observation (%): Day 90, placebo 28/50 (56.0)
Experimental: A double-blind, randomized, placebo-controlled phase II study was conducted to evaluate the efficacy and safety of AM-111 in treating ASNHL and associated tinnitus. Eligible participants were aged 18 to 60 years and suffered from ASNHL (unilateral idiopathic sudden sensorineural hearing loss (ISSNHL), uni- or bilateral acute acoustic trauma (AAT)) with hearing loss of at least 30 dB and onset not more than 48 hours previously. The hearing loss was determined against a reference value: mean hearing threshold at the 3 most affected contiguous test frequencies (pure tone average, PTA) less corresponding mean hearing threshold of the contralateral ear (Plontke et al., 2007). In case of previously asymmetric hearing or bilateral ASNHL, thresholds from a previous audiogram or ISO-7029; 2000 norm values served as reference. The PTA frequencies determined at baseline remained fixed for all evaluations.
Exclusion criteria included history of Meniére's disease, autoimmune or radiation induced hearing […] loss, endolymphatic hydrops or fluctuating hearing loss, suspected perilymph fistula, membrane rupture or retrocochlear lesion, barotrauma, air-bone gap >20 dB in 3 contiguous frequencies, previous ASNHL incident within the past 6 weeks, and acute or chronic otitis media or otitis externa. Women who were breast feeding, pregnant or who planned a pregnancy during the study, or women of childbearing potential who declared being unwilling or unable to practice an effective method of […] contraception were excluded. Written informed consent was obtained from each patient prior to the performance of any study-specific procedures.
At baseline (Day 0), study participants were randomized to receive AM-111 (0.4 or 2.0 mg/mL) or placebo at a 2:1 ratio. The study consisted of a baseline assessment and 4 follow-up visits on Days 3, 7, 30, and 90. Baseline assessments included a general physical examination, vital signs, and a urine pregnancy test for women of childbearing age. At each study visit pure tone hearing thresholds, speech discrimination at 60 and 80 dB, and subjective tinnitus loudness were determined. Those patients reporting tinnitus were asked to rate its loudness “right now” on a numerical scale ranging from 0 (no tinnitus) to 10 (extremely loud).
Approximately 0.25 mL of the study drug was administered on Day 0 by intratympanic (i.t.) injection under local anesthesia through a small myringotomy with the patient's head placed in a position tilted 45° towards the unaffected ear. Patients remained in their reclined or supine position for approximately 30 minutes to allow for diffusion of the active substance into the cochlea. In case of bilateral AAT, only the worst affected ear was treated. Subjects whose PTA recovered <10 dB from baseline to Day 7 were given the option to receive oral prednisolone 50 mg (Ratiopharm, Ulm, Germany) b.i.d. for 5 days.
The sample size was determined based on an expected effect size of 0.6, a two-sided type I error rate of 5% and a statistical power of 80%.
Efficacy analyses were primarily performed on a modified “Intention to treat” (mITT) analysis set (treated patients with PTA measured on Day 3±1 or Day 7+4 days at most) and secondarily on the “Per Protocol” (PP) analysis set. The “Safety Population” analysis set included all patients who received an injection of the study medication. Random imputation was performed for missing PTA values at Days 7 and 30, and missing speech discrimination score (SDS) values at Day 7 based on the preceding value and the mean change observed in the respective treatment group (mITT set).
For continuous efficacy endpoints, analysis of covariance (ANCOVA) models were used including treatment group and initial frequency range as class effects, and baseline values of the respective endpoint as covariate. For the complete recovery rate, a logistic regression model was applied including treatment, initial frequency range, and baseline hearing loss as predictor variables. […]

[3] = test system: models of cochlear insult; conditions: acute noise trauma, acute labyrinthitis, aminoglycoside ototoxicity, bacterial infection, cochlear ischemia, cochlear implantation trauma; cited from earlier work

Compound: DQSRPVQPFLNLTTPRKPRPPRRRQRRKKRG (SEQ ID NO: 2) (not fully specified (some residues); also: D-amino acids (positions not given here)) [D-JNKI-1]
- L (gC and Us11) protein accumulation (wild type HSV-1 (KOS)): severe reduction
- accumulation of IE (ICP27) and E (ICP8) proteins (wild type HSV-1 (KOS)): moderate reductions
- virus yield, % of control (KOS strain of HSV-1 [1]; 10 μM, fetal rat neurons, DMSO = 100): 12%
- Pfu/culture (KOS strain of HSV-1 [1]; 10 μM, fetal rat neurons): 1.67 × 10^5 Pfu/culture
- virus yield (in words) (KOS strain of HSV-1 [1]; rat cortex neurons): substantially reduced
- survival of intracerebrally infected mice (reovirus T3D; otherwise lethal challenge with T3D (100×50% lethal dose)): significantly prolonged survival
- CNS injury (reovirus T3D; reovirus-infected mice): reduced CNS injury
- c-Jun activation (reovirus T3D; reovirus-infected mice): reduced c-Jun activation
- neuronal apoptosis (reovirus T3D; reovirus-infected mice): reduced neuronal apoptosis
- viral titer or viral antigen distribution (reovirus T3D; reovirus-infected mice): without altering
- virus yield (in words) (KOS strain of HSV-1 [2]): substantially reduced
- virus yield, % of control (KOS strain of HSV-1 [2]; First experiment, 10 μM): 37%
- Pfu/culture (KOS strain of HSV-1 [2]; First experiment, 10 μM, MOI 5, harvest 20 h postinfection, DMSO 3.5 × 10^5): 1.27 × 10^5 Pfu/culture
- Pfu/culture (KOS strain of HSV-1 [2]; Second experiment, 10 μM, DMSO 8.5 × 10^5): 2.23 × 10^5 Pfu/culture
- virus yield, % of control (KOS strain of HSV-1 [2]; Second experiment, 10 μM): 26%
- Pfu/culture (KOS strain of HSV-1 [2]; Second experiment, 20 μM, DMSO 8.5 × 10^5): 2.06 × 10^5 Pfu/culture
- virus yield, % of control (KOS strain of HSV-1 [2]; Second experiment, 20 μM): 24%

Compound: DQSRPVQPFLNLTTPRKPRPPRRRQRRKKRG (SEQ ID NO: 2) ([dD][dQ][dS][dR][dP][dV][dQ][dP][dF][dL][dN][dL][dT][dT][dP][dR][dK][dP][dR][dP][dP][dR][dR][dR][dQ][dR][dR][dK][dK][dR]G) [AM-111, 31-amino acid cell-permeable peptide, formulated in a biocompatible hyaluronic acid gel]
- Complete ASNHL-Related Tinnitus Remission in the Treated Ear, Frequency (%) (ASNHL-related tinnitus; All Subjects, 0.4 mg/mL, N = 50, Time point: Overall (90 days), placebo 28 (54.9%), p 0.151): 35 (70.0%)
- Complete ASNHL-Related Tinnitus Remission in the Treated Ear, Frequency (%) (ASNHL-related tinnitus; All Subjects, 2.0 mg/mL, N = 56, Overall, placebo 28 (54.9%), p 1.000): 31 (55.4%)
- Number of Subjects with Tinnitus/Number of Subjects with Observation (%) (ASNHL-related tinnitus; 0.4 mg/mL i.t.): 38.0%
- Number of Subjects with Tinnitus/Number of Subjects with Observation (%) (ASNHL-related tinnitus; 2.0 mg/mL i.t.): 51.9%
- Complete ASNHL-Related Tinnitus Remission in the Treated Ear, Frequency (%) (ASNHL-related tinnitus; Mild to Moderate Subgroup, 0.4 mg/mL, N = 25, Overall, placebo 22 (78.6%), p 0.732): 21 (84.0%)
- Complete ASNHL-Related Tinnitus Remission in the Treated Ear, Frequency (%) (ASNHL-related tinnitus; Mild to Moderate Subgroup, 2.0 mg/mL, N = 27, Overall, placebo 22 (78.6%), p 0.245): 17 (63.0%)
- complete tinnitus remission, difference between AM-111 treatment groups and placebo (ASNHL-related tinnitus; subgroup mild to moderate hearing loss, 0.4 and 2.0 mg/mL): no statistically significant differences
- otoprotection [3]: otoprotective

Compound: Oc1c2ccccc2c2c3c(cccc13)N=N2 [SP600125, reference compound]
- Pfu/culture (KOS strain of HSV-1 [1]; 40 μM, fetal rat neurons): 8.0 × 10^5 Pfu/culture
- activity at 40 µM (KOS strain of HSV-1 [1]; Human alphaherpesvirus 1, Neuron, 40 μM, fetal rat neurons, DMSO = 100, read-out: virus yield, % of control): 60%
- Pfu/culture (KOS strain of HSV-1 [2]; First experiment, 40 μM, MOI 5, harvest 20 h postinfection, DMSO 3.5 × 10^5): 2.57 × 10^5 Pfu/culture
- activity at 40 µM (KOS strain of HSV-1 [2]; read-out: virus yield, % of control, First experiment, 40 μM, DMSO = 100): 72%
- activity at 40 µM (KOS strain of HSV-1 [2]; read-out: virus yield, % of control, Second experiment, 40 μM, DMSO = 100): 20%
- Pfu/culture (KOS strain of HSV-1 [2]; Second experiment, 40 μM, DMSO 8.5 × 10^5): 1.76 × 10^5 Pfu/culture
